Laboratory results published in patent publication US10610563B2, “Use of ubiquitin-proteasome system inhibitors for treatment of tumors associated with neurofibromatosis type-2” (BIOXCEL CORPORATION, priority 2014, dated 2020).
Each block holds one compound with its values, some of them ahead of it.

Columns and labels:
Caspase 3/7 [1] = assay: Caspase 3/7 activity (Caspase-Glo 3/7) in control haploid cells; conditions: 18 hrs
Caspase 3/7 [2] = assay: Caspase 3/7 activity (Caspase-Glo 3/7) in NF2 knockout cell line; conditions: 18 hrs
LATS1 = assay: Western blot analysis for LATS1 protein in NF2 knockout cell line; type: cell-based; conditions: 3, 10 & 30 nM at 18 hrs; compared to cells not treated
Protocol: Cells from NF2 knockout cell line 1293-1 cells control Haploid cell line (control wild type cells) are seeded in 6 well plates. […] LATS1 protein was assayed by Western blot (Chemiluminescence) method and both NF2 cell lines are used in the analysis. […] Cell lysates were analysed by western blotting and LATS1 was detected using anti-lats1 antibody (Abcam, ab70561); GAPDH protein levels were assayed using anti-GAPDH antibody as endogenous control. The objective was to quantify the up-regulation/down-regulation of proteins (LATS1) involved in Hippo signaling pathway in NF2 knockout cell line compared to the control cell line. Another objective is to observe the effect of bortezomib treatment in the NF2 knockout cell line, following assays using the Western Blot/WES System.

[3] = system: wild type haploid (HAP1) cells; assay: Cell proliferation/cytotoxicity assay (MTS / CellTitre Blue) in control HAP1 cell line
20S proteasome [4] = biological target: T1, 20S proteasome (Homo sapiens, UniProt P28074); assay: 20S proteasome activity (chymotrypsin-like, Suc-LLVY-AMC) in wild type haploid (HAP1) cells; type: cell-based; conditions: concentration dependent manner; 18 hrs
Protocol: (§1) The cells were then washed in PBS (Phosphate buffered saline) and lysed in a buffer containing non-ionic detergent and ATP. The cell lysate was centrifuged at 15,000 g for 30 minutes at 4° C. The supernatant was collected, aliquoted and stored at −80° C. until assay. Chymotrypsin-like peptidase activity of 20S proteasome was measured by using 40 μM Succinyl-Leu-Leu-Val-Tyr-AMC (Boston Biochem: S-280), a fluorogenic peptide substrate, along with 12 nM of recombinant PA28α (Boston Biochem: E-381 or R&D Systems Cat. # E-381-100), in an assay buffer containing 20 mM HEPES pH 7.4 and 0.5 mM EDTA. 20S proteasome cleaved the peptide substrate to release the free fluorophore AMC. […] The compound carfilzomib was used as an internal control for the assay (NF2 cells treated with carfilzomib). Similar assay was also performed with the wild type haploid (HAP1) cells for 18 hrs at different bortezomib concentrations ranging from 1 nM to 300 nM (i.e. 1 nM, 3 nM, 10 nM, 30 nM, 100 nM and 300 nM). The reaction was monitored by measuring the fluorescence through Flex Station 3 (Molecular Devices) or Envision (PerkinElmer) (excitation/emission: 353/442 nm), for 1 hour a 37° C. under kinetic setting. Substrate turnover was estimated as a standard curve generated using standard AMC. The results of 20S proteasome assay are described in FIGS. 1, 2, 3, 4 & 5.

in vitro = conditions: human, wild type haploid (HAP1) cells
mesothelioma = assay: Treatment of mesothelioma patients carrying mutations in NF2 or BAP1 genes; type: in vivo; conditions: mesothelioma patients with NF2 or BAP1 mutation; 1.3 mg/m^2 intravenous bolus twice in a week, 21-d cycle, up to eight cycles
Description: Mesothelioma patients can be screened for mutation(s) in any of these genes by molecular genetic testing, which is done by the mutation scanning and gene duplication/deletion testing. For example, mutation scanning is done by polymerase chain reaction amplification of the DNA of patients compared to control DNA, and DNA with altered DNA segments may be subjected to the further testing, such as sequence analysis to identify the sequence alterations. Gene duplication/deletion testing is done by quantitative polymerase chain reaction, long-range polymerase chain reaction, multiplex ligation-dependent probe amplification (MLPA), and chromosomal microarray (CMA) that includes the gene/chromosome segment for detection. Molecular genetic testing confirms about the mutation in the NF2 gene or that in the BAP1 gene. […] Bortezomib at a dose of 1.3 mg/m^2 via intravenous bolus for 3 to 5 seconds is given to patients, twice in a week for at least 2 weeks (days 1, 4, 8 and 11) of a 21-d cycle for up to eight cycles.

[5] = system: NF2 knockout cell line 1293-1; assay: Cell proliferation/cytotoxicity assay (MTS / CellTitre Blue) in NF2 knockout cell line
20S proteasome [6] = biological target: T1, 20S proteasome; assay: 20S proteasome activity (chymotrypsin-like, Suc-LLVY-AMC) in NF2 knockout cells; type: cell-based
Protocol: as §1

[7] = 0.1 nM to 100 nM, 6 hrs and 12 hrs

Compound: CN[C@@H]1C[C@H]2O[C@@](C)([C@@H]1OC)n1c3ccccc3c3c4c(c5c6ccccc6n2c5c31)C(=O)NC4 [Staurosporine]
apoptosis in the Caspase 3/7 assay, positive reference control, wild type haploid cell line (Caspase 3/7 [1]; Staurosporine 1 & 10 μM): induced apoptosis was also observed | apoptosis in the Caspase 3/7 assay, positive reference control, NF2 knockout cell line (Caspase 3/7 [2]; Staurosporine 1 & 10 μM): induced apoptosis was also observed

proteasome activity in the wild type haploid cell line (20S proteasome [4]): showed inhibition in proteasome activity | proteasome activity in the NF2 knockout cell line (20S proteasome [6]; from 3 nM onwards, post 6 hrs, 12 hrs, 18 hrs and 24 hrs incubation): decreased significantly
Compound: CC(C)C[C@H](NC(=O)[C@H](Cc1ccccc1)NC(=O)c1cnccn1)B(O)O [bortezomib, [(1R)-3-methyl-1-({(2S)-3-phenyl-2[(pyrazin-2-ylcarbonyl)amino]propanoyl}amino)butyl]boronic acid]
levels of LATS1 protein in NF2 knockout cell line (Western blot) (LATS1): increased levels of LATS1 | toxicity in the wild type haploid (HAP1) cell line (in words) ([3]; 6 hrs): did not show any significant toxicity | toxicity in the wild type haploid (HAP1) cell line (in words) ([3]; higher concentration (>30 nM), 12, 18 & 24 hrs): toxicity was observed | cytotoxicity at 6 h, 0.1 nM (in vitro): 2.64% | cytotoxicity at 6 h, 0.3 nM (in vitro): 4.7% | cytotoxicity at 6 h, 1 nM (in vitro): 5.65% | cytotoxicity at 6 h, 3 nM (in vitro): 1.58% | cytotoxicity at 6 h, 10 nM (in vitro): 0.99% | cytotoxicity at 6 h, 30 nM (in vitro): 7.63% | cytotoxicity at 6 h, 60 nM (in vitro): 9.63% | cytotoxicity at 6 h, 100 nM (in vitro): 6.08% | cytotoxicity at 12 h, 0.1 nM (in vitro): 3.91% | cytotoxicity at 12 h, 0.3 nM (in vitro): 2.62% | cytotoxicity at 12 h, 1 nM (in vitro): 0.2% | cytotoxicity at 12 h, 3 nM (in vitro): 1.1% | cytotoxicity at 12 h, 10 nM (in vitro): 5.12% | cytotoxicity at 12 h, 30 nM (in vitro): 24.9% | cytotoxicity at 12 h, 60 nM (in vitro): 31.9% | cytotoxicity at 12 h, 100 nM (in vitro): 26.9% | cytotoxicity at 18 h, 0.1 nM (in vitro): 6.83% | cytotoxicity at 18 h, 0.3 nM (in vitro): 6.9% | cytotoxicity at 18 h, 1 nM (in vitro): 5.78% | cytotoxicity at 18 h, 3 nM (in vitro): 7.83% | cytotoxicity at 18 h, 10 nM (in vitro): 7.56% | cytotoxicity at 18 h, 30 nM (in vitro): 26.3% | cytotoxicity at 18 h, 60 nM (in vitro): 31% | cytotoxicity at 18 h, 100 nM (in vitro): 32.7% | cytotoxicity at 24 h, 0.1 nM (in vitro): 11.2% | cytotoxicity at 24 h, 0.3 nM (in vitro): 11.4% | cytotoxicity at 24 h, 1 nM (in vitro): 10.9% | cytotoxicity at 24 h, 3 nM (in vitro): 16.6% | cytotoxicity at 24 h, 10 nM (in vitro): 44.8% | cytotoxicity at 24 h, 30 nM (in vitro): 75% | cytotoxicity at 24 h, 60 nM (in vitro): 77.4% | cytotoxicity at 24 h, 100 nM (in vitro): 78.9% | delay in tumor progression (mesothelioma): 50% | reduction in tumor size (mesothelioma): 25% | apoptosis/Caspase 3/7 activation in the control haploid cells (Caspase 3/7 [1]; 3 nM onwards, compared to NF2 knockout cell line): minimal increase in apoptosis/Caspase 3/7 activation | cytotoxicity in the NF2 knockout cell line [5, 7]: 10-15% | cytotoxicity in the NF2 knockout cell line (in words) [5, 7]: do not show any significant cytotoxicity | Average % Cytotoxicity in the NF2 knockout cells ([5]; bortezomib 0.1 nM, 6 hrs): −5.18% | Average % Cytotoxicity in the NF2 knockout cells ([5]; bortezomib 0.1 nM, 12 hrs): −21.57% | Average % Cytotoxicity in the NF2 knockout cells ([5]; bortezomib 0.1 nM, 18 hrs): −16.92% | Average % Cytotoxicity in the NF2 knockout cells ([5]; bortezomib 0.1 nM, 24 hrs): −63.43% | Average % Cytotoxicity in the NF2 knockout cells ([5]; bortezomib 0.3 nM, 6 hrs): −5.03% | Average % Cytotoxicity in the NF2 knockout cells ([5]; bortezomib 0.3 nM, 12 hrs): −32.20% | Average % Cytotoxicity in the NF2 knockout cells ([5]; bortezomib 0.3 nM, 18 hrs): −26.59% | Average % Cytotoxicity in the NF2 knockout cells ([5]; bortezomib 0.3 nM, 24 hrs): −71.10% | Average % Cytotoxicity in the NF2 knockout cells ([5]; bortezomib 1 nM, 6 hrs): −1.49% | Average % Cytotoxicity in the NF2 knockout cells ([5]; bortezomib 1 nM, 12 hrs): −28.42% | Average % Cytotoxicity in the NF2 knockout cells ([5]; bortezomib 1 nM, 18 hrs): −25.10% | Average % Cytotoxicity in the NF2 knockout cells ([5]; bortezomib 1 nM, 24 hrs): −66.58% | Average % Cytotoxicity in the NF2 knockout cells ([5]; bortezomib 3 nM, 6 hrs): −0.78% | Average % Cytotoxicity in the NF2 knockout cells ([5]; bortezomib 3 nM, 12 hrs): −24.79% | Average % Cytotoxicity in the NF2 knockout cells ([5]; bortezomib 3 nM, 18 hrs): −19.23% | Average % Cytotoxicity in the NF2 knockout cells ([5]; bortezomib 3 nM, 24 hrs): −68.56% | Average % Cytotoxicity in the NF2 knockout cells ([5]; bortezomib 10 nM, 6 hrs): 8.10% | Average % Cytotoxicity in the NF2 knockout cells ([5]; bortezomib 10 nM, 12 hrs): −11.84% | Average % Cytotoxicity in the NF2 knockout cells ([5]; bortezomib 10 nM, 18 hrs): 14.52% | Average % Cytotoxicity in the NF2 knockout cells ([5]; bortezomib 10 nM, 24 hrs): 29.86% | Average % Cytotoxicity in the NF2 knockout cells ([5]; bortezomib 30 nM, 6 hrs): 14.05% | Average % Cytotoxicity in the NF2 knockout cells ([5]; bortezomib 30 nM, 12 hrs): 17.18% | Average % Cytotoxicity in the NF2 knockout cells ([5]; bortezomib 30 nM, 18 hrs): 35.71% | Average % Cytotoxicity in the NF2 knockout cells ([5]; bortezomib 30 nM, 24 hrs): 37.83% | Average % Cytotoxicity in the NF2 knockout cells ([5]; bortezomib 60 nM, 6 hrs): 16.44% | Average % Cytotoxicity in the NF2 knockout cells ([5]; bortezomib 60 nM, 12 hrs): 16.07% | Average % Cytotoxicity in the NF2 knockout cells ([5]; bortezomib 60 nM, 18 hrs): 38.70% | Average % Cytotoxicity in the NF2 knockout cells ([5]; bortezomib 60 nM, 24 hrs): 43.98% | Average % Cytotoxicity in the NF2 knockout cells ([5]; bortezomib 100 nM, 6 hrs): 10.89% | Average % Cytotoxicity in the NF2 knockout cells ([5]; bortezomib 100 nM, 12 hrs): 15.71% | Average % Cytotoxicity in the NF2 knockout cells ([5]; bortezomib 100 nM, 18 hrs): 39.72% | Average % Cytotoxicity in the NF2 knockout cells ([5]; bortezomib 100 nM, 24 hrs): 45.16% | toxicity in the NF2 knockout cell line (in words) ([5]; higher concentration (>30 nM), 18 hrs and 24 hrs): slight toxicity was observed | proteasome activity in the NF2 knockout cell line (dose dependence) (20S proteasome [6]; 1 nM to 300 nM): dose dependent decrease in proteasome activity | comparison of % inhibition in proteasome activity, NF2 knockout cells vs wild type haploid cells (20S proteasome [6]; post 18 hrs incubation (FIG. 5)): greater inhibition in the NF2 knockout cells | caspase activity (apoptosis) in the NF2 knockout cell line (Caspase 3/7 [2]; 3 nM onwards): significant increase in the caspase activity
